pKi: −log10 of the molar value. Values belong to the molecule of their own block, whether it stands above or below them.
Key:
Human Hepatocytes = test: Human hepatic metabolic stability in cryopreserved human hepatocytes; assay type: in vitro ADME; conditions: intrinsic clearance (apparent); 1 μM substrate, 0.5 million viable cells/mL, 37° C., 5 donors
Procedure: (§1) The human hepatic metabolic stability of the compounds of Examples 1-7 of the present application were assessed in the model described below. The compound of Example 75 of WO 02/074754, 5′-carboxypropoxy-8′-chloro-spiro[cyclohexane-1-4′-(3′,4′-dihydro)quinazolin]-2′(1′H)-one (hereinafter “Compound A”), which is believed to represent the closest state of the art, was used as a comparison.
(§2) Hepatocytes are used as an in vitro system to monitor hepatic metabolism as these intact cells contain all the hepatic enzymes found in vivo, including phase I enzymes, such as cytochrome P450 oxidases (CYPs), aldehyde oxidases and monoamine oxidases (MAOs), and phase 11 enzymes, such as UDP-glucuronyltransferases and sulfotransferases. Cryopreserved human hepatocytes are prepared from 5 donors and suspended in Williams' E media. 4-(2-hydroxyethyl)-1-piperazineethanesulfonic acid (HEPES) is added to a final concentration of 50 mM and pH is adjusted to 7.4. Test substrates are dissolved in DMSO are added to the hepatocytes to give a substrate concentration of 1 μM, with a final DMSO concentration in the incubation below 0.1%. The experiments are performed in 96 or 384 well plates at 37° C., with a hepatocyte density of 0.5 million viable cells/mL. Sampling times of 10, 20, 30, 60, 90, and 120 minutes are used and analytical quantitation is by LC-MS/MS. The intrinsic clearance (apparent) is calculated using the formula: CLint, app=[−slope/0.5 M cells/mL]·1000 μL/mL=μL/min/M cells.
(§3) The human hepatic metabolic stability of the compounds of the present invention was tested according to the above protocol.

Rat IV pharmacokinetics = assay type: in vivo
Procedure: The pharmacokinetic properties of the compounds of Examples 1 and 2 were tested in the rat model described below. The compound of Example 75 of WO 02/074754, 5′-carboxypropoxy-8′-chloro-spiro[cyclohexane-1-4′-(3′,4′-dihydro)quinazolin]-2′(1′H)-one (hereinafter “Compound A”), which is believed to represent the closest state of the art, was used as a comparison.
The test compounds were administered to male rats (each rat receiving one compound), via the tail vein, at a dose of 1 mg/kg (0.08 mg/kg for the compound of Example 1). Blood samples were withdrawn from the rats via a surgically implanted jugular vein cannula at predetermined time-points after administration, and centrifuged to produce plasma. Plasma samples were analysed via a specific LC-MS/MS assay for the quantification of drug in plasma. The resulting plasma concentration-time curves were interrogated using a non-compartmental pharmacokinetic analysis in order to understand the disposition of each compound. The resulting output was subsequently used to estimate the likely human pharmacokinetic profile, as described below.
The mean, dose normalised, pharmacokinetic profiles of the compounds of Examples 1 and 2, as well as that of Compound A, following 1 mg/kg intravenous administration are shown in Table 6 below and in FIG. 1.

[1] = Fraction unbound in rat plasma; assay type: in vitro ADME; conditions: for fraction unbound: read-out: fup (fraction unbound in rat plasma)
[2] = Estimate of human pharmacokinetics by scaling rat unbound clearance; conditions: for Clu man: estimated human clearance scaled from rat: Clu rat*(BWman/BWrat)^0.75, 70 kg man, 0.25 kg rat; for half-life: human, T1/2=[ln(2)*Vd]/Cl, Vd in man assumed 0.2 L/kg, read-out: Estimated T1/2 (human half-life) (converted)
From the text: (§4) Based on the above pharmacokinetic data in the rat, the likely human pharmacokinetics of the compounds of Examples 1 and 2, and that of Compound A, can be estimated as follows. • Scaling the unbound rat plasma clearance (Clu rat) observed following intravenous administration to estimate an unbound human plasma clearance (Clu man) using the following relationship: Clu man=Clu rat*(BWman/BWrat)^0.75 where BWman & BWrat are the average body weights of man (70 kg) and rat (0.25 kg) respectively, and units of clearance are in ml/min. • Converting Clu man to estimate total blood clearance in man (Clman): Clman=[(Clu man)*fup]/B:P where fup is the free fraction of unbound drug in plasma and B:P is the blood to plasma ratio in human blood. • An estimate of human half-life is presented for each compound, derived using the relationship: T1/2=[In(2)*Vd]/Cl where T1/2 is the estimated human half-life in hours, Vd is the volume of distribution in man (assumed to be 0.2 L/kg, due to the physicochemistry of this series) and Cl is the human clearance.

[3] = Free fraction of unbound drug in plasma used for the human estimate; assay type: in vitro ADME; conditions: Table 7, used to convert Clu man to Clman; for fraction unbound: human, plasma, read-out: fup (free fraction of unbound drug in plasma)
From the text: as §4

[4] = Blood to plasma ratio in human blood; assay type: in vitro ADME; conditions: for blood plasma ratio: human, read-out: B:P (blood to plasma ratio)
From the text: as §4

PDE7A = molecular target: T1, PDE7A (Homo sapiens, UniProt Q13946); test: PDE7A inhibition, [3H]-cAMP scintillation proximity assay; assay type: biochemical; conditions: IC50 converted to Ki by Cheng-Prussof equation; cell lysate with full length enzyme, ~25 nM cAMP
T1 construct: carried out using cell lysate containing full length PDE7A and PDE7B enzyme; made in house
T1 sequence (Q13946 whole entry, species assumed): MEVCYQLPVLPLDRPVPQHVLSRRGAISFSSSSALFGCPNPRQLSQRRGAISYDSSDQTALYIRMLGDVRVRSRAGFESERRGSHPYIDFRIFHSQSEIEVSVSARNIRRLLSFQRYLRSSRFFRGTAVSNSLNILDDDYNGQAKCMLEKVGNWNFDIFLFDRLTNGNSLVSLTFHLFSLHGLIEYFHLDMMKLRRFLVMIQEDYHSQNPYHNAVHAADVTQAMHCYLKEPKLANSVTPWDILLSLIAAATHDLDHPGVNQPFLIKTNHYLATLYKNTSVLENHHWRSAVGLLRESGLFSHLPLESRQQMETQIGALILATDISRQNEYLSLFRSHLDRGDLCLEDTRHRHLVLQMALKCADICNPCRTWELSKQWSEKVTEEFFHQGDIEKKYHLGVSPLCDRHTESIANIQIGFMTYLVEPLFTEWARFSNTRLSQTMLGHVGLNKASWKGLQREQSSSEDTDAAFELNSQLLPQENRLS
Procedure: (§5) The ability of the compounds of formula (I) to inhibit PDE7 may be measured using the following assay protocol.
(§6) PDE7A and PDE7B enzymes catalyse the hydrolysis of 3′,5′-cyclic adenosine monophosphate (cAMP) to the 5′adenosine monophosphate, 5′AMP. In a multiwell plate; PDE enzyme, [^3H]-cAMP and the tested compounds, are incubated at room temperature. The incubation is terminated by addition of commercially available yttrium silicate scintillation proximity assay (SPA) beads containing zinc sulphate. The yttrium silicate beads preferentially bind linear nucleotides, thus the product of the enzyme reaction, [^3H]-5′AMP binds to the bead to produce a light signal, which is detected by a scintillation counter. The amount of signal produced directly correlates with the amount of product formed, and thus the activity of the enzyme. The maximum signal is obtained where enzyme and substrate are incubated alone. The background signal is measured from wells either containing no enzyme, or from wells containing a supra-maximal concentration of a known PDE7A/B inhibitor. Each purified batch of enzyme is quality controlled and its Km, Vmax and specific activity determined from kinetic studies before use in compound inhibition studies. The inhibition of the enzyme, by a test compound, is calculated relative to the maximum and background responses.
(§7) The optimisation of this assay has been carried out using cell lysate containing full length PDE7A and PDE7B enzyme. The concentration of the enzyme in this cell lysate sample is unknown, so the specific activity of the cell lysate is used as a measure to ensure that the same activity per well is used despite any batch-to-batch variation of concentration/activity.
(§8) PDE7 stock enzyme was prepared and kept at −20° C. in appropriately sized aliquots to reduce the number of freeze/thaw cycles. […] PDE7A is diluted to 1/8000 and PDE7B to 1/10000.
(§9) The final assay [cAMP] of ˜25 nM is required, so ˜50 nM [^3H]-cAMP was prepared.
(§10) Compound dilutions and “background” wells were made 30 stronger than required in the assay plate to allow for 1 μl compound to be diluted by 29 μl of other assay components (14 μl enzyme and 15 μl radioligand). Thus for a final assay concentration of 10 μM, the compound must be at 300 μM in the compound addition plate. 4 mM stocks of compound are supplied in 100% DMSO (or are made up @ 4 mM from powder submissions). This requires 1/13.33 dilution in DMSO to be made.
(§11) 1 μl test compound was transferred into a suitable multi-well assay plate immediately prior to reagent assay addition, 14 μl enzyme solution was then added to the assay plate, followed by 15 μl substrate solution (ie: final assay volume 30 μl, with a final screening compound concentration of […]). The plate was then sealed using a plate sealer and incubated at room temperature for 45 min on the plate shaker.
(§12) 30 μl Yttrium Silicate PDE4 SPA beads were then added, ensuring constant stirring of the beads to give even distribution in the assay plate. The plate was then sealed using a plate sealer and incubated at room temperature for 30 mins on the plate shaker. The beads were then allowed to settle for 30 mins, before spinning the plates for 1 min at 200 g.
(§13) The plates were then read on a suitable radioactive counter, for example NXT-TopCount™ (available from Perkin Elmer) using the relevant protocol (30 second read time per well).
(§14) The data was fitted to a sigmoid curve using a least squares algorithm.
(§15) The IC50 value was converted to a K^i value using the Cheng-Prussof equation: […]

PDE7B = molecular target: T2, PDE7B (Homo sapiens, UniProt Q9NP56); test: PDE7B inhibition, [3H]-cAMP scintillation proximity assay; assay type: biochemical; conditions: IC50 converted to Ki by Cheng-Prussof equation; cell lysate with full length enzyme, ~25 nM cAMP
T2 construct: carried out using cell lysate containing full length PDE7A and PDE7B enzyme; made in house
T2 sequence (Q9NP56 whole entry, species assumed): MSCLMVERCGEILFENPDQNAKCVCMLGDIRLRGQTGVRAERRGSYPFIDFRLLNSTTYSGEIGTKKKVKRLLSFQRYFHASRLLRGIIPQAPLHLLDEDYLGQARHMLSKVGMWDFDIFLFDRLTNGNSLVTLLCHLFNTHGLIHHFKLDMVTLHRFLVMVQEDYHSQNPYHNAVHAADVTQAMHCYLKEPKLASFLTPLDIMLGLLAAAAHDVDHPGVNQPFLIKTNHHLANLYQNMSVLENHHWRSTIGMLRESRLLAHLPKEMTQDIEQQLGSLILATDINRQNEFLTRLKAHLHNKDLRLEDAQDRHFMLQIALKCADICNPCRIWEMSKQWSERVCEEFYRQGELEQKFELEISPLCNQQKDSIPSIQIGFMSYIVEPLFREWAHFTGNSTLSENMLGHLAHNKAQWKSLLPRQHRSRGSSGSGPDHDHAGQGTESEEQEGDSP
Procedure: as §5, §6, §7, §8, §9, §10, §11, §12, §13, §14, §15

[5] = Human hepatic metabolic stability in cryopreserved human hepatocytes; assay type: in vitro ADME; conditions: human, hepatocytes, pH 7.4
Procedure: as §1, §2, §3

[6] = male rats, intravenous 1 mg/kg (0.08 mg/kg for Example 1)

Clu (unbound rat plasma clearance) (Rat IV pharmacokinetics; Clu = Cl/fup, male rats, intravenous): 156 mL/min/kg | T1/2 (half life) (Rat IV pharmacokinetics; [6]): <1 h | Vd (volume of distribution in rat) (Rat IV pharmacokinetics; [6]): 0.4 L/kg | Cl (rat clearance) (Rat IV pharmacokinetics; male rats, intravenous 1 mg/kg (0.08 mg/kg for Example 1), mean, dose normalised): 7 mL/min/kg | Clu rat (Rat IV pharmacokinetics; unbound rat plasma clearance after intravenous administration, as repeated in Table 7): 156 mL/min/kg | fup (fraction unbound in rat plasma) [1]: 0.045 | Clu man [2]: 1.9 mL/min/kg | fup (free fraction of unbound drug in plasma) [3]: 0.03 | B:P (blood to plasma ratio) [4]: 0.6
SMILES: O=C(O)CCCOc1ccc(Cl)c2c1C1(CCCCC1)NC(=O)N2 [Compound A, 5′-carboxypropoxy-8′-chloro-spiro[cyclohexane-1-4′-(3′,4′-dihydro)quinazolin]-2′(1′H)-one, reference compound]
Human Hepatocytes CLint (Human Hepatocytes): 25 μL/min/M cells

pKi (PDE7A): 8.72 | pKi (PDE7B): 8.34 | hepatocyte CLint at 1 μM [5]: < 5 µL/min/1e6 cells | Clu (unbound rat plasma clearance) (Rat IV pharmacokinetics; male, rat, in vivo, iv): 27 mL/min/kg | Clu rat (Rat IV pharmacokinetics; male, rat, in vivo, iv): 27 mL/min/kg | clearance (Rat IV pharmacokinetics; male, rat, in vivo, iv): 1.9 mL/min/kg | half-life (Rat IV pharmacokinetics; male, rat, in vivo, iv): 4 h | Vd (volume of distribution in rat) (Rat IV pharmacokinetics; rat, in vivo, iv): 0.6 L/kg | fraction unbound [1]: 0.07 | Clu man [2]: 0.8 mL/min/kg | half-life [2]: 3 h | fraction unbound [3]: 0.07 | blood plasma ratio [4]: 0.6
SMILES: O=C1Nc2c(Cl)ccc(O[C@H]3C[C@@H](C(=O)O)C3)c2C2(CCCCC2)N1 [Example 1, Cis-3-[(8′-chloro-2′-oxo-2′,3′-dihydro-1′H-spiro[cyclohexane-1,4′-quinazolin]-5′-yl)oxy]cyclobutanecarboxylic acid]

pKi (PDE7A): 8.51 | pKi (PDE7B): 7.87 | hepatocyte CLint at 1 μM [5]: < 5 µL/min/1e6 cells | Clu (unbound rat plasma clearance) (Rat IV pharmacokinetics; male, rat, in vivo, iv): 70 mL/min/kg | Clu rat (Rat IV pharmacokinetics; male, rat, in vivo, iv): 70 mL/min/kg | clearance (Rat IV pharmacokinetics; male, rat, in vivo, iv): 0.7 mL/min/kg | half-life (Rat IV pharmacokinetics; male, rat, in vivo, iv): 11 h | Vd (volume of distribution in rat) (Rat IV pharmacokinetics; rat, in vivo, iv): 0.7 L/kg | fraction unbound [1]: 0.1 | Clu man [2]: 0.2 mL/min/kg | half-life [2]: 10 h | fraction unbound [3]: 0.01 | blood plasma ratio [4]: 0.7
SMILES: O=C1Nc2c(Cl)ccc(O[C@H]3C[C@H](C(=O)O)C3)c2C2(CCCCC2)N1 [Example 2]

pKi (PDE7A): 7.81 | pKi (PDE7B): 6.97 | hepatocyte CLint at 1 μM [5]: < 5 µL/min/1e6 cells
SMILES: O=C1Nc2c(F)ccc(OCC3CC(C(=O)O)C3)c2C2(CCCCC2)N1 (centres unmarked) [Example 3, 3-[(8′-fluoro-2′-oxo-2′,3′-dihydro-1′H-spiro[cyclohexane-1,4′-quinazolin]-5′-yl)oxymethyl]cyclobutanecarboxylic acid]

pKi (PDE7A): 7.94 | pKi (PDE7B): 6.84 | hepatocyte CLint at 1 μM [5]: < 5 µL/min/1e6 cells
SMILES: N#Cc1ccc(O[C@H]2C[C@H](C(=O)O)C2)c2c1NC(=O)NC21CCCCC1 [Example 4, trans-3-[(8′-cyano-2′-oxo-2′,3′-dihydro-1′H-spiro[cyclohexane-1,4′-quinazolin]-5′-yl)oxy]cyclobutanecarboxylic acid]

pKi (PDE7A): 6.56 | pKi (PDE7B): 5.85 | hepatocyte CLint at 1 μM [5]: < 5 µL/min/1e6 cells
SMILES: O=C1Nc2c(F)ccc(OCC3(C(=O)O)CCC3)c2C2(CCCCC2)N1 [Example 5, 1-[(8′-fluoro-2′-oxo-2′,3′-dihydro-1′H-spiro[cyclohexane-1,4′-quinazolin]-5′-yl)oxymethyl]cyclobutanecarboxylic acid]

pKi (PDE7B): 7.75 | hepatocyte CLint at 1 μM [5]: < 5 µL/min/1e6 cells
SMILES: O=C1Nc2c(Cl)ccc(O[C@H]3C[C@H](C(=O)O)C3)c2C2(CCCCCC2)N1 [Example 6, Trans-3-[(8′-chloro-2′-oxo-2′,3′-dihydro-1′H-spiro[cycloheptyl-1,4′-quinazolin]-5′-yl)oxy]cyclobutanecarboxylic acid]

pKi (PDE7A): 7.70 | pKi (PDE7B): 6.85 | hepatocyte CLint at 1 μM [5]: < 5 µL/min/1e6 cells
SMILES: O=C1Nc2c(Cl)ccc(O[C@H]3C[C@H](C(=O)O)C3)c2C2(CCCC2)N1 [Example 7, Trans-3-[(8′-chloro-2′-oxo-2′,3′-dihydro-1′H-spiro[cyclopentyl-1,4′-quinazolin]-5′-yl)oxy]cyclobutanecarboxylic acid]
